The source of these data is patent US8163768B2, “1,4-dihydropyridine-fused heterocycles, process for preparing the same, use and compositions containing them” (Aventis Pharma S.A.., priority 2005, dated 2012).

Where a name gives a salt, the structure may show the parent alone.

One series addresses T1, Aurora2 (Aurora-A) (Homo sapiens, UniProt O14965).
T1 construct: Aurora-A: the full length recombinant protein including an N-terminal poly-histidine tail has been expressed in E. coli; poly-histidine (N); made in house; host or cells: E. coli
T1 sequence (O14965 1-403): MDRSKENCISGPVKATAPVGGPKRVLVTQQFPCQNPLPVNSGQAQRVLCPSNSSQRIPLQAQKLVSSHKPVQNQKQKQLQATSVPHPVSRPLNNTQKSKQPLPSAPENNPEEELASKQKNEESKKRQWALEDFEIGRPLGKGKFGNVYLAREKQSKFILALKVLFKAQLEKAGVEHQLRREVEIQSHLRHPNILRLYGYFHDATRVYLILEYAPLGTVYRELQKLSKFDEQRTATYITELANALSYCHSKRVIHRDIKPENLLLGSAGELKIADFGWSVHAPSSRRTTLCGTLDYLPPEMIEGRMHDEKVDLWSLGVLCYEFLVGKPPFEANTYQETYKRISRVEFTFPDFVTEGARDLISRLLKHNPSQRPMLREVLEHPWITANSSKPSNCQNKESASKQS
Kind of series: Aurora 2 (Aurora A) kinase radioactivity scintillation assay using nickel chelate Flash plates. The settings on record: 10 nM Aurora-A, 500 nM NuMA substrate, 1 μM ATP with [33P] ATP, 10 mM MgCl2, 30 minutes, 37° C. Format: biochemical. A digest of the protocol:
(§1)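 10 nM Aurora-B or Aurora-A with 500 nM NuMA-His substrate, 1 μM ATP plus [³³P]ATP, in 50 mM NaCl, 1 mM DTT and 5 mM (B) or 10 mM (A) MgCl2, 30 min at 37° C on nickel-chelate plates. Incorporated ³³P counted after washing, background-subtracted; IC50 fitted from % inhibition versus concentration.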

The target in a further series is T2, Aurora1 (Aurora-B) (Homo sapiens, UniProt Q96GD4).
T2 construct: Aurora-B: the full length protein (His tagged in N-terminal) has been co expressed in SF9 cells; poly-histidine (N); made in house; host or cells: SF9 cells
The experiment in a line: Aurora 1 (Aurora B) kinase radioactivity scintillation assay using nickel chelate Flash plates. In kind it is biochemical. To be noted: 10 nM Aurora-B (co expressed with C3 fragment of INCEP), 500 nM NuMA substrate, 1 μM ATP with [33P] ATP, 5 mM MgCl2, 30 minutes, 37° C. An outline of the steps: as §1

T2 sequence (Q96GD4 whole entry, species assumed): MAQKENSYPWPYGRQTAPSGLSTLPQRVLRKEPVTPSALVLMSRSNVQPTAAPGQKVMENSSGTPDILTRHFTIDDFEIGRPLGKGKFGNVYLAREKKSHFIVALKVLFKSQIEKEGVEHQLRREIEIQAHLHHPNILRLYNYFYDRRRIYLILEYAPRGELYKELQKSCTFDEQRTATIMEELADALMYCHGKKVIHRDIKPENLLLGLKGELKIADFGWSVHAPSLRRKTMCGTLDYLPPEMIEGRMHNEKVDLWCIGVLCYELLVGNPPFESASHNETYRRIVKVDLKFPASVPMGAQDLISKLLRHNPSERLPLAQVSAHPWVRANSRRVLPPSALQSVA
T2 sequence (Q9NQS7 821-918 partner limits assumed, species assumed): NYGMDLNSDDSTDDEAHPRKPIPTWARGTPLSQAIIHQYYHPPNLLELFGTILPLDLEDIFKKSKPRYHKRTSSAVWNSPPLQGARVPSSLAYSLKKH

Usually IC50 stands for the concentration that gives 50% inhibition. A word on the melting point: it is the temperature, or range, at which the solid turns liquid. In the case of `CCOC(=O)c1[nH]cc2c1NC1=C(C(=O)CCC1)C2c1ccc(Sc2nc3cc(OC)ccc3[nH]2)o1` (centres unmarked) [Example 110, 9-[5-(5-Methoxy-1H-benzimidazol-2-ylsulfanyl)-furan-2-yl]-8-oxo-4,5,6,7,8,9-hexahydro-2H-pyrrolo[3,4-b]quinoline-3-carboxylic acid ethyl ester], the melting point is 140 °C. For the same compound, the IC50 at Aurora2 (Aurora-A) amounted to 21 nM. Moreover, at Aurora1 (Aurora-B), the IC50 worked out at 8 nM.
For `CCOC(=O)c1[nH]cc2c1NC1=C(C(=O)CNC1)C2c1ccc(Sc2nc3cc(OC)ccc3[nH]2)o1` (centres unmarked) [Example 111, 9-[5-(6-Methoxy-1H-benzimidazol-2-ylsulfanyl)-furan-2-yl]-8-oxo-4,5,6,7,8,9-hexahydro-2H-pyrrolo[3,4-b][1,7]naphthyridine-3-carboxylic acid ethyl ester], in that order: 248 °C, 1250 nM and 501 nM.
`CCOC(=O)c1[nH]cc2c1NC1=C(C(=O)CCC1)C2c1ccc(Sc2nc3cccnc3[nH]2)o1` (centres unmarked) [Example 112, 9-[5-(3H-Imidazo[4,5-b]pyridin-2-ylsulfanyl)-furan-2-yl]-8-oxo-4,5,6,7,8,9-hexahydro-2H-pyrrolo[3,4-b]quinoline-3-carboxylic acid ethyl ester] yielded a melting point of 190 to 202 °C. Besides, the IC50 at Aurora1 (Aurora-B) was found to be 12 nM.
Regarding `CCOC(=O)c1[nH]cc2c1NC1=C(C(=O)CNC1)C2c1ccc(Sc2nc3cc(F)c(F)cc3[nH]2)o1` (centres unmarked) [Example 115, 9-[5-(5,6-Difluoro-1H-benzimidazol-2-ylsulfanyl)-furan-2-yl]-8-oxo-4,5,6,7,8,9-hexahydro-2H-pyrrolo[3,4-b][1,7]naphthyridine-3-carboxylic acid ethyl ester], the melting point lay within 190 to 196 °C. Further, the IC50 on Aurora2 (Aurora-A) worked out at 48 nM. For the same compound, the IC50 on Aurora1 (Aurora-B) is 8 nM.
Compound `CCOC(=O)c1[nH]cc2c1NC1=C(C(=O)CCC1)C2c1ccc(Sc2nc3cc(Cl)c(Cl)cc3[nH]2)o1` (centres unmarked) [Example 116, 9-[5-(5,6-Dichloro-1H-benzimidazol-2-ylsulfanyl)-furan-2-yl]-8-oxo-4,5,6,7,8,9-hexahydro-2H-pyrrolo[3,4-b]quinoline-3-carboxylic acid ethyl ester] had a melting point of 180 °C. In addition, the IC50 on Aurora2 (Aurora-A) turned out to be 54 nM. Further, the half-maximal inhibitory concentration (IC50) at Aurora1 (Aurora-B) is 6 nM.
In turn, `CCOC(=O)c1[nH]cc2c1NC1=C(C(=O)CCC1)C2c1cnc(Sc2nc3ccccc3[nH]2)s1` (centres unmarked) [Example 118, 9-[2-(1H-Benzimidazol-2-ylsulfanyl)-thiazol-5-yl]-8-oxo-4,5,6,7,8,9-hexahydro-2H-pyrrolo[3,4-b]quinoline-3-carboxylic acid ethyl ester] had a melting point of 194 °C.
On to `CCOC(=O)c1[nH]cc2c1NC1=C(C(=O)CNC1)C2c1ccc(Sc2nc3cc(F)c(Cl)cc3[nH]2)o1` (centres unmarked) [Example 147, 9-[5-(6-Chloro-5-fluoro-1H-benzimidazol-2-ylsulfanyl)-furan-2-yl]-8-oxo-4,5,6,7,8,9-hexahydro-2H-pyrrolo[3,4-b]-1,7-naphthyridine-3-carboxylic acid ethyl ester hydrochloride], for which the IC50 at Aurora2 (Aurora-A) worked out at 67 nM; on Aurora1 (Aurora-B) it was 9 nM.
For `CCOC(=O)c1[nH]cc2c1NC1=C(C(=O)CNC1)C2c1ccc(Sc2nc3cc(F)ccc3[nH]2)o1` (centres unmarked) [Example 149, 9-[5-(5-Fluoro-1H-benzimidazol-2-ylsulfanyl)-furan-2-yl]-8-oxo-4,5,6,7,8,9-hexahydro-2H-pyrrolo[3,4-b]-1,7-naphthyridine-3-carboxylic acid ethyl ester hydrochloride], in that order: 55 nM and 11 nM.
For `CCOC(=O)c1[nH]cc2c1NC1=C(C(=O)CCC1)C2c1ccc(Sc2nc3cc(OC(F)(F)F)ccc3[nH]2)o1` (centres unmarked) [Example 150, 8-Oxo-9-[5-(5-trifluoromethoxy-1H-benzimidazol-2-ylsulfanyl)-furan-2-yl]-4,5,6,7,8,9-hexahydro-2H-pyrrolo[3,4-b]quinoline-3-carboxylic acid ethyl ester], in that order: 29 nM and 19 nM.
For `CCOC(=O)c1[nH]cc2c1NC1=C(C(=O)CNC1)C2c1ccc(Sc2nc3cc(OC(F)(F)F)ccc3[nH]2)o1` (centres unmarked) [Example 151, 8-Oxo-9-[5-(5-trifluoromethoxy-1H-benzimidazol-2-ylsulfanyl)-furan-2-yl]-4,5,6,7,8,9-hexahydro-2H-pyrrolo[3,4-b][1,7]naphthyridine-3-carboxylic acid ethyl ester hydrochloride], in that order: 60 nM and 14 nM.
